Results: US12227515B2, “In-flow photooxygenation of aminothienopyridinones generates novel PTP4A3 phosphatase inhibitors” (University of Virginia Patent Foundation, priority 2018, dated 2025)
pIC50: −log10 of the molar value.

Legend:
[1] = target: recombinant human His6-tagged PTP4A2 (Homo sapiens (Human), UniProt Q12974); test: In vitro biochemical analysis of PTP4A inhibition, DiFMUP substrate; conditions: DiFMUP 12 μM, 25 minutes, 25° C.; mean ± S.E.M.
[2] = target: recombinant human His6-tagged PTP4A3 (Homo sapiens (Human), UniProt O75365); test: as above; conditions: for preference among the PTP4A family members: PTP4A3 versus PTP4A1 and PTP4A2, from IC50 values
Sequence of recombinant human His6-tagged PTP4A3 (O75365 whole entry): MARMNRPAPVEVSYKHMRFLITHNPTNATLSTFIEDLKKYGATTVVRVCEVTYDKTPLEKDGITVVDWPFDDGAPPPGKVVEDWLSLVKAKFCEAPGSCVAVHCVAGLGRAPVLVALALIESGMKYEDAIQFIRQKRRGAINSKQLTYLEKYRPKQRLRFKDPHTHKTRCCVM

Sequence of recombinant human His6-tagged PTP4A2 (Q12974 whole entry): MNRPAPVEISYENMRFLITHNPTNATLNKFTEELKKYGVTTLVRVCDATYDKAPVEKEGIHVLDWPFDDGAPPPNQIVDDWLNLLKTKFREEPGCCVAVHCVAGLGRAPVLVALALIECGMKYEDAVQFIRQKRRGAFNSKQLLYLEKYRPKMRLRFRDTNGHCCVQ

| SMILES | pIC50 [1] | preference among the PTP4A family members [2] | IC50 PTP4A3 ([2]; DiFMUP 12 μM, 25 minutes, 25° C., mean ± S.E.M.) |
| --- | --- | --- | --- |
| N=C1C(=O)NC(=O)c2cc(-c3ccccc3Cl)sc21 [Compound 9k, 2-(2-Chlorophenyl)-7-iminothieno[3,2-c]pyridine-4,6(5H,7H)-dione] | 6.95 | even more pronounced preference for PTP4A3 compared with PTP4A2 | – |
| N=C1C(=O)NC(=O)c2cc(-c3ccc(OCCN4CCOCC4)cc3)sc21 [Compound 9o, 7-Imino-2-(4-(2-morpholinoethoxy)phenyl)thieno[3,2-c]pyridine-4,6(5H,7H)-dione] | – | little preference | – |
| CN1C(=O)C(=N)c2sc(-c3ccccc3)cc2C1=O [Compound 9p, 7-Imino-5-methyl-2-phenylthieno[3,2-c]pyridine-4,6(5H,7H)-dione] | 6.58 | even more pronounced preference for PTP4A3 compared with PTP4A2 | – |
| O=c1[nH]c(=O)c2cc(-c3ccccc3)sc2[nH]1 [JMS-038, 6-phenylthieno[2,3-d]pyrimidine-2,4(1H,3H)-dione, reference compound] | – | – | failed to inhibit PTP4A3 |
